Assay results as given in patent publication US20150056209A1, “PEPTIDE MIMOTOPES TO OXIDATION SPECIFIC EPITOPES” (The Regents of the University of California, priority 2012, published 2015).
Bridges are numbered along the chain shown (N, C = ends). Where no end group is shown, it is not given here.

Legend:
LRO4 [1] = assay: Competition immunoassays for LRO4 binding; design: species or system murine; details: 0.5 μg/mL LRO4, increasing concentrations of soluble competitor; for competition for LRO4 binding to captured biotinylated P1: 100 ng/mL captured P1; for competition for LRO4 binding to captured biotinylated P2: 100 ng/mL captured P2; for competition for LRO4 binding to coated MAA-BSA: 0.5 μg/mL coated MAA-BSA
Experimental: (§1) The specific binding of LRO4 to mimotopes was determined by competition immunoassays. Fifty μl of 0.5 μg/mL MAA-BSA or 100 ng/mL of biotinylated peptides were plated as described above. LRO4 antibody was incubated in TBS-1% BSA with or without increasing concentrations of competitors (BSA, MAA-BSA, P1, P2 and control peptide) for 30 minutes at RT. Binding of LRO4 was determined by chemiluminescent ELISA. The specificity of human plasma Ab binding to P1 was determined in a similar manner. In preliminary experiments, aliquots of pooled plasma samples (n=26) from a published cohort of healthy subjects were diluted in 1% BSA-TBS to yield a limiting plasma dilution. Diluted plasma (1:1,000) and increasing concentrations of competitors were incubated overnight at 4° C. Samples were then centrifuged at 15,800 g for 45 minutes at 4° C. to pellet immune complexes, and supernatants were analyzed for binding to plated P1 (10 μg/mL) by chemiluminescent ELISA.

apoptotic Jurkat T-cells = assay: Flow cytometry, LRO4 binding to apoptotic Jurkat T-cells; format: cell-based; details: UV-induced apoptotic Jurkat T-cells; increasing concentrations of soluble peptide
Experimental: Binding of LRO4 IgM to apoptotic Jurkat T-cells was assessed by flow cytometry. Apoptosis of Jurkat cells was induced by UV irradiation (UV Stratalinker, Stratagene, USA) at 20 mJ/cm^2, followed by further incubation of the cells in serum free medium for 14-16 hours. After washing in FACS buffer (PBS with 0.1% BSA) 10^6 cells were incubated with 1 μg LRO4 in 100 μl FACS buffer for 30 minutes at 4° C. In parallel experiments, cells were incubated with LRO4 in the presence of increasing concentrations of P1, P2, and an irrelevant control peptide. Following a washing step, cells were stained with FITC-labeled anti-mouse IgM (II/41, BD Biosciences-Pharmingen) in 100 μL staining buffer for 30 minutes at 4° C. in darkness and washed again. Thereafter, cells were incubated with PE-labeled Annexin-V and 7-AAD (BD Bioscience-Pharmingen) in Annexin-V binding buffer for 15 minutes and immediately analyzed by flow cytometry using a BD LSR II analyzer (BD Bioscience, San Jose, Calif., USA). More than 5.0×10^4 cells were acquired per sample, and data analysis was performed using FlowJo software (Tree Star Inc, San Carlos, Calif., USA).

[2] = tested on: human MDA-specific IgG Fab IK17; assay: ELISA for binding of the human monoclonal Fab IK17; details: antigens coated; biotinylated IK17 at increasing concentrations
Experimental: ELISA for binding of the human monoclonal Fab IK17. P1, P2, and MAA-BSA were coated onto microtiter plates, and biotinylated IK17 (Biot.IK17) was added at indicated concentrations. Binding was detected by chemiluminescent detection using AP-conjugated neutravidin. Values are given as relative light units (RLU) per 100 ms and represent the mean±SD of triplicate determinations.
(§2) Binding of mAb as well as plasma Abs to respective antigens was measured by chemiluminescent ELISA. Antigens were coated at 5 μg/mL in PBS/EDTA (pH 7.4). Synthetic peptides were directly coated at 10 μg/mL (P1) or 5 μg/mL (P2) in 0.1M NaHCO3 buffer (pH 8.6), unless indicated differently. Biotinylated peptides were immobilized at indicated concentrations in 0.1M NaHCO3 buffer (pH 8.6) on wells pre-coated with 10 μg/mL neutravidin (Pierce, Rockford, Ill., USA). Ab binding was measured using alkaline phosphatase (AP) labeled secondary Abs (described below) followed by chemiluminescent detection. For the detection of human autoAbs, a 1:400 plasma dilution was used. For human assays, internal controls consisting of high and low standard plasma samples were included on each microtiter plate to detect potential variations between microtiter plates. The intra-assay coefficients of variation for all assays were 10 to 14%.
(§3) The following secondary Abs were used: Alkaline Phosphatase (AP)-labeled goat anti-mouse IgM (μ-chain specific), IgG (γ-chain specific), IgG1 (Sigma-Aldrich) and IgG2c (Southern Biotech). For the detection of human autoAbs AP-labeled goat anti human IgG (γ-chain specific) and IgM (μ-chain specific) (Sigma-Aldrich) were used. Biotin-conjugated Abs were detected with AP-conjugated neutravidin (1:10,000; Pierce).

[3] = tested on: human plasma IgG and IgM autoAbs; assay: Chemiluminescent ELISA of human plasma autoAbs to coated mimotopes; format: binding; details: n=18 healthy volunteers, plasma 1:400
Experimental: as §2, with “For human assays, internal controls consisting of high and low standard plasma samples were included on each microtiter plate to detect potential variations between microtiter plates. The intra-assay coefficients of variation for all assays were 10 to 14%.” left out
The following secondary Abs were used: Alkaline Phosphatase (AP)-labeled goat anti-mouse IgM (μ-chain specific), IgG (γ-chain specific), IgG1 (Sigma-Aldrich) and IgG2c (Southern Biotech). […] Biotin-conjugated Abs were detected with AP-conjugated neutravidin (1:10,000; Pierce).
Human plasma samples from two independent studies were analyzed for the presence of anti-peptide Abs. […] For these studies, autoAb titers to MDA-LDL as the antigen have already been reported, to allow ready comparisons to the new data generated here. […]
Statistical analyses were performed with GraphPad Prism 5 for Windows (Graphpad Software, Inc., San Diego, Calif.). […] For continuous variables, differences were evaluated by one-way analysis of variances (ANOVA). […]

LRO4 [4] = assay: Chemiluminescent ELISA, binding of LRO4 to plated or captured peptides; design: species or system murine; details: peptides directly plated at increasing concentrations; LRO4 5 μg/mL
Experimental: as §2, §3

PC-specific IgM mAb EO6 = assay: Chemiluminescent ELISA, binding of EO6 to plated peptides; design: species or system murine; details: EO6 5 μg/mL; peptides coated at 5-10 μg/mL
Experimental: (A) ELISA for the binding of LRO4 to BSA, MAA-BSA, the P2 mimotope (ACNNSNMPLC-GGGS) (SEQ ID NO:3) and a scrambled peptide (ACSPNLNMNC-GGGS) (SEQ ID NO:4) of P2 (Scr.P2). Peptides were coated at 20 μg/ml, BSA and MAA-BSA at 5 μg/ml, and binding of indicated concentrations of LRO4 was determined by chemiluminescent ELISA as described in Methods. (B) ELISA for binding of LRO4 and EO6. P1, P2, BSA, MAA-BSA, nLDL, MDA-LDL, and CuOx-LDL were coated at 5-10 μg/mL. Binding of LRO4 and EO6 (both at 5 μg/mL) was determined by chemiluminescent ELISA. (C) Immunocompetition assay for the specificity of LRO4. Binding of 0.5 μg/mL LRO4 to 100 ng/mL captured biotinylated peptides P2 was measured by ELISA in the presence of increasing concentrations of P2 and scrambled P2. […]
Binding of mAb as well as plasma Abs to respective antigens was measured by chemiluminescent ELISA. […] Ab binding was measured using alkaline phosphatase (AP) labeled secondary Abs (described below) followed by chemiluminescent detection. […]

[5] = tested on: human plasma IgM and IgG Abs; assay: Immunocompetition assay, human plasma Ab binding to plated P1; details: pooled human plasma 1:1,000; increasing concentrations of soluble competitor
Experimental: as §1

IMGVGAVGAGAI (Control peptide) [irrelevant control peptide, reference compound]
competition for LRO4 binding to captured biotinylated P1 (LRO4 [1]): had no effect | competition for LRO4 binding to captured biotinylated P2 (LRO4 [1]): had no effect | inhibition of LRO4 binding to apoptotic cells (apoptotic Jurkat T-cells): not

HSWTNSWMATFL (not fully specified (C-terminus)) [P1]
binding of IK17 [2]: in a dose-dependent manner | competition for LRO4 binding to captured biotinylated P1 (LRO4 [1]): did not compete | competition for LRO4 binding to captured biotinylated P2 (LRO4 [1]): did not compete | competition for LRO4 binding to coated MAA-BSA (LRO4 [1]): did not have an effect | IgG and IgM titers in plasma of healthy volunteers [3]: Plasma of all individuals contained both IgG and IgM titers | binding of LRO4 to plated peptides (LRO4 [4]): bound by LRO4 in a dose dependent manner | binding of EO6 to plated peptides (PC-specific IgM mAb EO6): did not react

MAA-BSA: malondialdehyde-acetaldehyde (MAA)-modified BSA [reference compound]
binding of IK17 [2]: bound | competition for LRO4 binding to captured biotinylated P1 (LRO4 [1]): fully competed | competition for LRO4 binding to captured biotinylated P2 (LRO4 [1]): fully competed | competition for LRO4 binding to coated MAA-BSA (LRO4 [1]): effectively competed | inhibition of binding of IgM and IgG Abs to plated P1 [5]: nearly completely inhibited

ACNNSNMPLC (disulfide 2-10 (inferred); not fully specified (C-terminus)) [P2]
binding of IK17 [2]: in a dose-dependent manner | competition for LRO4 binding to captured biotinylated P1 (LRO4 [1]): fully competed | competition for LRO4 binding to captured biotinylated P2 (LRO4 [1]): fully competed | competition for LRO4 binding to coated MAA-BSA (LRO4 [1]): effectively competed | IgG and IgM titers in plasma of healthy volunteers [3]: Plasma of all individuals contained both IgG and IgM titers | binding of LRO4 to plated peptides (LRO4 [4]): bound by LRO4 in a dose dependent manner | inhibition of LRO4 binding to apoptotic cells (apoptotic Jurkat T-cells): fully inhibited | binding of EO6 to plated peptides (PC-specific IgM mAb EO6): did not react
